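Compound exposure: 48 hours, 5 concentrations, 96-well plates. The concentration for 50% growth inhibition is given as GI50. TGI marks complete inhibition of growth.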 Where a SMILES comes first, the peptide text is derived from it. [ ]: non-standard residue; d: D form. The star is where a group is joined. Tyr(3-Br) = N[C@@H](Cc1ccc(O)c(Br)c1)C(=O)O; Boc = CC(C)(C)OC(=O)*
What was measured:
Experiment in all cases: inhibition of tumour cell growth, NCI panel, 48 h
MDA-MB-435 = system: MDA-MB-435
OVCAR-4 ovarian = system: OVCAR-4 ovarian
IGROV1 ovarian = system: IGROV1 ovarian
EKVX NSCLC = system: EKVX NSCLC
OVCAR-8 ovarian = system: OVCAR-8 ovarian
HOP-92 NSCLC = system: HOP-92 NSCLC
A498 renal = system: A498 renal
TK-10 renal = system: TK-10 renal
NCI-H522 lung = system: NCI-H522 lung
MALME-3M melanoma = system: MALME-3M melanoma
RXF 393 renal = system: RXF 393 renal

CC1(C)CC23CC(C)(C)c4cccc(c42)OCc2ccc4ccc5ccc(nc5c4n2)COc2cccc1c23
TGI (MDA-MB-435): > 50 µM
TGI (OVCAR-4 ovarian): > 50 µM
TGI (IGROV1 ovarian): > 50 µM
TGI (EKVX NSCLC): > 50 µM
TGI (OVCAR-8 ovarian): > 50 µM
TGI (HOP-92 NSCLC): > 50 µM
TGI (A498 renal): > 50 µM
TGI (TK-10 renal): > 50 µM
TGI (NCI-H522 lung): > 50 µM

C=C1C(=O)C[C@@]23CCC[C@@]12CC(OCOC)C3 (some centres undefined)
TGI (OVCAR-4 ovarian): 5.66 µM
TGI (IGROV1 ovarian): 6.02 µM
TGI (MALME-3M melanoma): 8.38 µM
TGI (EKVX NSCLC): 16.7 µM
TGI (OVCAR-8 ovarian): 9.96 µM
TGI (HOP-92 NSCLC): 7.43 µM
TGI (A498 renal): 18.4 µM
TGI (NCI-H522 lung): 0.675 µM
TGI (RXF 393 renal): 2.17 µM

Cc1ccc(N=N/C(=N/NC(=O)c2cc(Cl)ccc2C(=O)c2ccccc2)c2ccc(N(CCC#N)CCC#N)cc2C)cc1
TGI (MDA-MB-435): 82 µM
TGI (OVCAR-4 ovarian): 82.4 µM
TGI (IGROV1 ovarian): 41.3 µM
TGI (MALME-3M melanoma): 32.4 µM
TGI (EKVX NSCLC): 84.7 µM
TGI (OVCAR-8 ovarian): 29.9 µM
TGI (TK-10 renal): > 100 µM
TGI (NCI-H522 lung): 19.9 µM
TGI (RXF 393 renal): 7.24 µM

COc1ccc(/C=C2\CCC(C)/C(=C\c3ccc(OC)c(OC)c3)C2=O)cc1OC (centres undefined)
TGI (MDA-MB-435): > 100 µM
TGI (IGROV1 ovarian): 14.6 µM
TGI (MALME-3M melanoma): 22 µM
TGI (EKVX NSCLC): 10.2 µM
TGI (OVCAR-8 ovarian): 39.8 µM
TGI (A498 renal): 25.3 µM
TGI (TK-10 renal): 7.41 µM
TGI (RXF 393 renal): 24.2 µM

COc1ccc(C2Oc3cc(OC)c(O)c(C)c3[C@H]2C)cc1 (some centres undefined)
TGI (OVCAR-4 ovarian): > 100 µM
TGI (IGROV1 ovarian): > 100 µM
TGI (MALME-3M melanoma): > 100 µM
TGI (EKVX NSCLC): > 100 µM
TGI (OVCAR-8 ovarian): > 100 µM
TGI (HOP-92 NSCLC): > 100 µM
TGI (A498 renal): > 100 µM
TGI (TK-10 renal): > 100 µM
TGI (NCI-H522 lung): > 100 µM
TGI (RXF 393 renal): > 100 µM

Nc1nc(Cl)cc(OCC2(CO)CC(OCc3ccccc3)C2)n1 (centres undefined)
GI50 (MDA-MB-435): 69.4 µM
GI50 (OVCAR-4 ovarian): 47.9 µM
GI50 (MALME-3M melanoma): 84.5 µM
GI50 (EKVX NSCLC): 44.6 µM
GI50 (OVCAR-8 ovarian): 66.6 µM
GI50 (HOP-92 NSCLC): 49.9 µM
GI50 (A498 renal): 58.3 µM
GI50 (NCI-H522 lung): 47.2 µM
GI50 (RXF 393 renal): 48.6 µM

CC(C)CCC[C@@H](C)C1CCC2[C@@H]3CC=C4C[C@@H](C(=O)NCC[N+](C)(C)CCCS(=O)(=O)[O-])CC[C@]4(C)C3CC[C@@]21C (some centres undefined)
TGI (OVCAR-4 ovarian): 35.9 µM
TGI (IGROV1 ovarian): 32.6 µM
TGI (MALME-3M melanoma): 33.3 µM
TGI (EKVX NSCLC): 31 µM
TGI (OVCAR-8 ovarian): 35 µM
TGI (NCI-H522 lung): 23.6 µM
TGI (RXF 393 renal): 36.5 µM

O=C(NNC(c1ccccc1)C(F)(F)F)c1ccncc1 (centres undefined)
TGI (MDA-MB-435): > 100 µM
TGI (OVCAR-4 ovarian): > 100 µM
TGI (IGROV1 ovarian): > 100 µM
TGI (MALME-3M melanoma): > 100 µM
TGI (EKVX NSCLC): > 100 µM
TGI (OVCAR-8 ovarian): > 100 µM
TGI (HOP-92 NSCLC): > 100 µM
TGI (TK-10 renal): > 100 µM
TGI (NCI-H522 lung): > 100 µM

CS(=O)(=O)c1c(N)c2nc(Cl)cn2c2nc3ccccc3nc12
TGI (OVCAR-4 ovarian): > 100 µM
TGI (IGROV1 ovarian): > 100 µM
TGI (MALME-3M melanoma): > 100 µM
TGI (EKVX NSCLC): > 100 µM
TGI (OVCAR-8 ovarian): > 100 µM
TGI (NCI-H522 lung): > 100 µM

COc1cc(C(=O)O[C@@H]2[C@@H](OC(=O)c3cc(OC)c(OC)c(OC)c3)[C@@H](OC)O[C@@H]3CO[C@@H](c4ccccc4)O[C@@H]23)cc(OC)c1OC
TGI (MDA-MB-435): > 100 µM
TGI (OVCAR-4 ovarian): > 100 µM
TGI (IGROV1 ovarian): > 100 µM
TGI (MALME-3M melanoma): > 100 µM
TGI (EKVX NSCLC): > 100 µM
TGI (OVCAR-8 ovarian): > 100 µM
TGI (HOP-92 NSCLC): > 100 µM
TGI (A498 renal): > 100 µM
TGI (TK-10 renal): > 100 µM
TGI (NCI-H522 lung): > 100 µM

C=C1C(=O)OC2/C=C(/C)C3CC(O)C(C)(CC(OC(=O)/C(C)=C/C)C12)O3 (centres undefined)
TGI (OVCAR-4 ovarian): 20.6 µM
TGI (IGROV1 ovarian): 18.7 µM
TGI (MALME-3M melanoma): 4.48 µM
TGI (EKVX NSCLC): 14.5 µM
TGI (OVCAR-8 ovarian): 3.99 µM
TGI (HOP-92 NSCLC): 8.68 µM
TGI (A498 renal): 23.2 µM
TGI (TK-10 renal): 20.1 µM
TGI (NCI-H522 lung): 6.12 µM
TGI (RXF 393 renal): 3.49 µM

CN1CCCCC(C#N)(c2ccccc2)CC1 (centres undefined)
TGI (OVCAR-4 ovarian): > 100 µM
TGI (IGROV1 ovarian): > 100 µM
TGI (MALME-3M melanoma): > 100 µM
TGI (EKVX NSCLC): > 100 µM
TGI (OVCAR-8 ovarian): > 100 µM
TGI (HOP-92 NSCLC): > 100 µM
TGI (A498 renal): > 100 µM
TGI (TK-10 renal): > 100 µM
TGI (RXF 393 renal): > 100 µM

CCOC(=O)c1nc2ccccc2nc1Nc1ccc(OC)c(OC)c1
TGI (MDA-MB-435): > 100 µM
TGI (OVCAR-4 ovarian): > 100 µM
TGI (IGROV1 ovarian): > 100 µM
TGI (MALME-3M melanoma): > 100 µM
TGI (EKVX NSCLC): > 100 µM
TGI (HOP-92 NSCLC): > 100 µM
TGI (NCI-H522 lung): > 100 µM

COC(=O)[C@H](Cc1ccc(O)c(Br)c1)NC(=O)[C@H](Cc1ccc(O)cc1)NC(=O)OC(C)(C)C (Boc-Tyr-[Tyr(3-Br)]-OMe)
TGI (MDA-MB-435): 53.5 µM
TGI (OVCAR-4 ovarian): > 100 µM
TGI (IGROV1 ovarian): > 100 µM
TGI (MALME-3M melanoma): 57.2 µM
TGI (EKVX NSCLC): > 100 µM
TGI (OVCAR-8 ovarian): 37.5 µM
TGI (HOP-92 NSCLC): 93 µM
TGI (A498 renal): > 100 µM
TGI (TK-10 renal): > 100 µM

C/C=C1/CN2CCC3(O)c4ccccc4N4C=C(C(=O)OC)C1CC2C43O (centres undefined)
TGI (MDA-MB-435): > 100 µM
TGI (OVCAR-4 ovarian): > 100 µM
TGI (IGROV1 ovarian): > 100 µM
TGI (MALME-3M melanoma): > 100 µM
TGI (EKVX NSCLC): > 100 µM
TGI (OVCAR-8 ovarian): > 100 µM
TGI (HOP-92 NSCLC): > 100 µM
TGI (TK-10 renal): > 100 µM
TGI (NCI-H522 lung): > 100 µM

[N-]=[N+]=Nc1c(C=O)c(=O)n(-c2ccccc2)c2ccccc12
TGI (MDA-MB-435): 34.5 µM
TGI (OVCAR-4 ovarian): 37.4 µM
TGI (IGROV1 ovarian): 44.8 µM
TGI (MALME-3M melanoma): 45.3 µM
TGI (HOP-92 NSCLC): 31.1 µM
TGI (A498 renal): 10.1 µM
TGI (TK-10 renal): 39.1 µM
TGI (RXF 393 renal): 27.2 µM

c1ccc(C2=NOC3(c4ccccc4)SC4CCCCC4CN23)cc1 (centres undefined)
TGI (OVCAR-4 ovarian): > 100 µM
TGI (IGROV1 ovarian): 32.8 µM
TGI (MALME-3M melanoma): > 100 µM
TGI (EKVX NSCLC): > 100 µM
TGI (HOP-92 NSCLC): 59.4 µM
TGI (A498 renal): > 100 µM
TGI (TK-10 renal): > 100 µM
TGI (NCI-H522 lung): 22.6 µM
TGI (RXF 393 renal): 71.2 µM

CC(C)(C)NC(=O)NC12CC3CC(CC(F)(C3)C1)C2
TGI (IGROV1 ovarian): > 100 µM
TGI (MALME-3M melanoma): > 100 µM
TGI (EKVX NSCLC): > 100 µM
TGI (OVCAR-8 ovarian): > 100 µM
TGI (HOP-92 NSCLC): > 100 µM
TGI (A498 renal): > 100 µM
TGI (TK-10 renal): > 100 µM
TGI (NCI-H522 lung): > 100 µM
TGI (RXF 393 renal): > 100 µM

O=c1[nH]c2cc([N+](=O)[O-])ccc2nc1/C(=N/Nc1ccccc1)C(O)c1ccc(C(O)/C(=N\Nc2ccccc2)c2cnc3cc([N+](=O)[O-])ccc3n2)cc1 (centres undefined)
TGI (OVCAR-4 ovarian): > 100 µM
TGI (IGROV1 ovarian): > 100 µM
TGI (MALME-3M melanoma): > 100 µM
TGI (EKVX NSCLC): > 100 µM
TGI (OVCAR-8 ovarian): > 100 µM
TGI (HOP-92 NSCLC): > 100 µM
TGI (A498 renal): > 100 µM
TGI (TK-10 renal): > 100 µM
TGI (NCI-H522 lung): > 100 µM
TGI (RXF 393 renal): > 100 µM

O=C(N/N=C/c1ccc([N+](=O)[O-])o1)c1ccc(C(=O)N/N=C/c2ccc([N+](=O)[O-])o2)cc1
TGI (MDA-MB-435): 30.9 µM
TGI (OVCAR-4 ovarian): > 100 µM
TGI (IGROV1 ovarian): > 100 µM
TGI (MALME-3M melanoma): 48.7 µM
TGI (EKVX NSCLC): > 100 µM
TGI (OVCAR-8 ovarian): 77.9 µM
TGI (HOP-92 NSCLC): > 100 µM
TGI (A498 renal): > 100 µM
TGI (NCI-H522 lung): > 100 µM
TGI (RXF 393 renal): > 100 µM

O=C(Cc1csc(N=Nc2c(O)[nH]c3ccccc23)n1)Nc1ccccc1
TGI (MDA-MB-435): > 100 µM
TGI (OVCAR-4 ovarian): > 100 µM
TGI (IGROV1 ovarian): 30.5 µM
TGI (EKVX NSCLC): 52.8 µM
TGI (OVCAR-8 ovarian): 65.8 µM
TGI (HOP-92 NSCLC): > 100 µM
TGI (A498 renal): > 100 µM
TGI (TK-10 renal): > 100 µM
TGI (RXF 393 renal): > 100 µM

CCN(CC)CCCNc1ncc(C)c2[nH]c3ccncc3c12
TGI (OVCAR-4 ovarian): 13.8 µM
TGI (IGROV1 ovarian): 27.3 µM
TGI (MALME-3M melanoma): 27.4 µM
TGI (EKVX NSCLC): 63.3 µM
TGI (OVCAR-8 ovarian): 96.8 µM
TGI (HOP-92 NSCLC): 26.3 µM
TGI (A498 renal): 40.4 µM
TGI (NCI-H522 lung): 22.8 µM
TGI (RXF 393 renal): 23 µM

From PubChem BioAssay (NCI)
